Results as given in US12478628B2, “Germ cell nuclear factor ligands and methods of use thereof” (Saint Louis University, priority 2020, dated 2025).

What was measured:
[1] = target: T1, LRH-1 (NR5A2) LBD (Homo sapiens, UniProt O00482); assay: DSF specificity assay, LRH-1; format: binding
T1 construct: human LRH-1 (NR5A2) LBD (residues 291-541); hexahistidine tag with 3C protease site; made in house; host or cells: E. coli BL(21) DE3
Experimental: (§1) Protein Expression and Purification. Human GCNF (NR6A1) LBD (residues 248-480) and mutants F284A/F361A, human LRH-1 (NR5A2) LBD (residues 291-541), human RXRα LBD (residues 223-462), human COUP-TF I LBD (residues 184-410) and human SF-1 LBD (residues 219-461) were subcloned in pET45b(+) plasmid (Novagen) were expressed in E. coli BL(21) DE3 cells in terrific broth with 0.1 mg/mL ampicillin as 3C protease-cleavable hexahistidine-tagged fusion proteins. The bacterial culture was grown at 37° C. to an optical density of 0.8 to 1.0 at 600 nm. Protein expression was induced by adding 1 mM IPTG and was allowed to proceed for 14 h at 22° C. […]
(§2) DSF Assay. […] A total of 450 compounds (Life Chemicals) previously selected from a nuclear-receptor-biased library targeting REV-ERB were analyzed. Thermal stability was assessed on a Quantstudio 6 instrument (Biosystems) by ramping the temperature from 25° C. to 95° C. at 0.05° C./s and protein melt shifts were subsequently quantified by Boltzmann-derived melting temperature (Tm) using the Protein Thermal Shift (ThermoFisher) software. […]

[2] = target: T2, RXRα LBD (Homo sapiens, UniProt P19793); assay: DSF specificity assay, RXRα; format: binding
T2 construct: human RXRα LBD (residues 223-462); hexahistidine tag with 3C protease site; made in house; host or cells: E. coli BL(21) DE3
T2 sequence (P19793 223-462): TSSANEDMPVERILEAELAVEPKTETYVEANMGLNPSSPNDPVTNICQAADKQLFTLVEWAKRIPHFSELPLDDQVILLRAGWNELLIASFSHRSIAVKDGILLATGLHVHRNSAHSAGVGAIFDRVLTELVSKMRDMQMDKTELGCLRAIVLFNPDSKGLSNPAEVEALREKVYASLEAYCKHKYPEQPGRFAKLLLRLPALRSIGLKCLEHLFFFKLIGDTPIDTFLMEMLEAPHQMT
Experimental: as §1, §2

[3] = target: T3, GCNF LBD Y336F (Homo sapiens, UniProt Q15406, Y336F); assay: DSF of GCNF LBD mutant Y336F; format: binding; conditions: 5 mM protein with 20 mM ligand as printed
T3 construct: Human GCNF (NR6A1) LBD (residues 248-480); hexahistidine tag with 3C protease site; made in house; host or cells: E. coli BL(21) DE3
T3 sequence (Q15406 248-480 Y336F): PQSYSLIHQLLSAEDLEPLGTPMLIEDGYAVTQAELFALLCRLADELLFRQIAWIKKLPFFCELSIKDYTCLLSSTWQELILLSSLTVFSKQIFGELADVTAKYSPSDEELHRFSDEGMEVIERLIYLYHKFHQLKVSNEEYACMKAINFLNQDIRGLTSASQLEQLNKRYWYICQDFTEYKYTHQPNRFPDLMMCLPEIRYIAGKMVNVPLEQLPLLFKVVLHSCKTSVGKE
Experimental: DSF Assay. GCNF LBD (5 μM) were mixed with 1× Sypro orange (Invitrogen) in DSF buffer (50 mM HEPES, 50 mM KCl, 5 mM TCEP, 0.5 mM EDTA, pH 7.5). […] Ten microliters (10 μL)×5 replicates for each sample were plated on 384-well PCR microplate. No protein control and no ligand references were also run simultaneously in 5 replicates on the same plate. A total of 450 compounds (Life Chemicals) previously selected from a nuclear-receptor-biased library targeting REV-ERB were analyzed. Thermal stability was assessed on a Quantstudio 6 instrument (Biosystems) by ramping the temperature from 25° C. to 95° C. at 0.05° C./s and protein melt shifts were subsequently quantified by Boltzmann-derived melting temperature (Tm) using the Protein Thermal Shift (ThermoFisher) software. Positive hits were identified when a thermal shift (ΔTm) of at least 2° C. was observed.

[4] = tested on: GCNF single point mutations F284A, Y336F and F361A with SMRT ID2 peptide; assay: FP SMRT ID2 recruitment with GCNF point mutants; format: biochemical, human; conditions: Y336F and F361A vs wild-type
Experimental: FP Assay. Fluorescence polarization (FP) assays were performed in triplicate on a 384-well Corning 3820 black opaque plate using a Biotek Synergy Neo2 HTS multimode microplate reader at excitation and emission wavelengths of 485 nm and 538 nm, respectively. Data were analyzed and plotted using GraphPad Prism as mean±SEM.
For the FP ligand titration assay, the aforementioned N-terminus fluorescein-tagged corepressor peptides were diluted to 500 nM from a 100 μM DMSO stock in the presence of 20 μM GCNF LBD and ligand concentration points 30, 20, 13, 9, 6, 4, 2.6, 1.7 and 0 μM in assay buffer containing 50 mM HEPES (pH 7.5), 50 mM KCl, 5 mM TCEP, 0.5 mM EDTA and 0.005% Tween20. The relative polarization was plotted against log of ligand concentration (μM) and the half maximal effective concentration (EC50) values were derived via sigmoidal fit.

T1 sequence (O00482 291-541): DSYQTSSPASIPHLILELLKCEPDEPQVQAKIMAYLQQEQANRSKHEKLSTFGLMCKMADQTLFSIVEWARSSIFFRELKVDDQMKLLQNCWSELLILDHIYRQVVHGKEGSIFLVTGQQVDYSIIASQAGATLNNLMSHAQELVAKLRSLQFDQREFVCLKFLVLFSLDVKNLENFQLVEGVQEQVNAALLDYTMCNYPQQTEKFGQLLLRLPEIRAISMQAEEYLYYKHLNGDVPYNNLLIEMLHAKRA

| Structure (SMILES) | change of Tm of LRH-1 LBD [1] | change of Tm of RXRα LBD [2] | effect of substitution Y336F on ligand binding (DSF) [3] | SMRT-ID2 peptide recruitment by GCNF mutants [4] |
| --- | --- | --- | --- | --- |
| Cc1ccc(-n2ncc3c(N4CCOCC4)nc(NCc4ccco4)nc32)cc1 [Ligand 34, N-[(furan-2-yl)methyl]-1-(4-methylphenyl)-4-(morpholin-4-yl)-1H-pyrazolo[3,4-d]pyrimidin-6-amine] | did not significantly change | did not significantly change | substantially affect the binding | substantially weakened corepressor peptide recruitment |
| O=C(Cn1cc(S(=O)(=O)c2ccccc2)c2ccccc21)N1CCc2ccccc21 [Ligand 80, 2-[3-(benzenesulfonyl)-1H-indol-1-yl]-1-(2,3-dihydro-1H-indol-1-yl)ethan-1-one] | did not significantly change | did not significantly change | only F361A significantly affect the binding of 80 | does not affect recruitment |
